# Laboratory results from publication PMC3591448, “Profile of the GSK Published Protein Kinase Inhibitor Set Across ATP-Dependent and-Independent Luciferases: Implications for Reporter-Gene Assays” (PLoS ONE, 2013).
# Like-named read-outs stand apart in the source and are kept apart here.
# How the values were obtained:
# [1] = biological target: firefly luciferase, Photinus pyralis (FLuc) (Photinus pyralis, UniProt P08659); assay: biochemical; format: biochemical; settings: for FLuc Parameters Hill Coef: Hill equation fit of CRC; for Emax: response relative to PTC124 control inhibitor, negative = inhibition, read-out: FLuc Parameters Efficacy
# firefly luciferase, Photinus pyralis (FLuc), sequence (P08659 whole entry): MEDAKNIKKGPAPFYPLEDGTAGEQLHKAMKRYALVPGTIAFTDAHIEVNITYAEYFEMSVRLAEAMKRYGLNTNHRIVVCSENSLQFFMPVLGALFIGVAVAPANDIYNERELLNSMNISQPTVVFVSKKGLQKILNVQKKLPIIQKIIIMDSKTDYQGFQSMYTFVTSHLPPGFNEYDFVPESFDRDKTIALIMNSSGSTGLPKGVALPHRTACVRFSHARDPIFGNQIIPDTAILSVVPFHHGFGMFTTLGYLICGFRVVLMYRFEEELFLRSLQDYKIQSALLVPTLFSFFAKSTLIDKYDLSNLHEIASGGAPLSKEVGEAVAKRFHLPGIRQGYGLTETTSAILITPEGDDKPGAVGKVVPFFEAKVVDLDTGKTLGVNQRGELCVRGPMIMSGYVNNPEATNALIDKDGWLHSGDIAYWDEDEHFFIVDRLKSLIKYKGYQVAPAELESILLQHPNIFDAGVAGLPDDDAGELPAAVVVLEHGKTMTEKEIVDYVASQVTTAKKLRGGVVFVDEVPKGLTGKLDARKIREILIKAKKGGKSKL
# Description: The bioluminescence outputs were measured by an EnVision reader (PerkinElmer, Wellesley, MA). Due to the relatively short luminescence duration of the RLuc assay, dispense time constants were set to match closely to the read time of the plate reader. As a result, each individual well was read with approximately the same time delay from reagent dispense to signal acquisition. See Table 1 for the 1536-well assay protocols.
# (§1) Data from each assay was normalized plate-wise to corresponding intraplate controls as described previously, [17]. The same control data sets were also used for the calculation of Z′ factors from each assay. In all assays, wells containing DMSO were used as no-response controls. For the FLuc enzymatic assay, each compound-treated well on the plate was normalized to the average readings of n = 24 PTC124 treated wells and n = 48 DMSO wells from the same plate. Wells were scaled to a full range of DMSO and zero, and then normalized using the maximum response observed in the screen as 100% activity. For the RLuc enzymatic assay, n = 24 BTS treated wells for the positive control, n = 48 DMSO. MSR values were calculated using the cumulative potency differences of the de-interleaved duplicate control titrations from each plate as previously described. The normalized data from each assay plate set was corrected using DMSO-only treated assay plates read at the start and end of each assay run, and the resulting inter-plate titration data fit, using in-house software, to the standard Hill equation and dose-response curves automatically classified as described previously.
# (§2) The curve classification scheme for assignment of resulting curve-fit data into CRC classes was according to Inglese et al. as follows: class 1 curves (far left) display two asymptotes, an inflection point, and r^2≥0.9; subclasses 1a vs. 1b are differentiated by full (>80%) vs. partial (≤80%) response. Class 2 curves (second from left) display a single left-hand asymptote and inflection point; subclasses 2a (or 2.1) and 2b (2.2) are differentiated by a max response and r^2, >80% and >0.9 or <80% and <0.9, respectively. Class 3 curves (second from right) have a single left-hand asymptote, no inflection point, and a response >3SD from the mean activity of the sample field.
# TRKA = tested on: TRKA; parameters: method as in Wood, E.R., et al. 2004; settings: ref Wood, E.R., et al. 2004; read-out: PKI IC50 (µM), TRKA; cited from earlier work
# [2] = biological target: T1, Renilla luciferase (RLuc) (Renilla reniformis, UniProt P27652); assay: RLuc enzymatic assay (purified enzyme, qHTS, 1536-well); format: biochemical; settings: 1 nM RLuc, 5 µM coelenterazine-H
# T1 sequence (P27652 1-311): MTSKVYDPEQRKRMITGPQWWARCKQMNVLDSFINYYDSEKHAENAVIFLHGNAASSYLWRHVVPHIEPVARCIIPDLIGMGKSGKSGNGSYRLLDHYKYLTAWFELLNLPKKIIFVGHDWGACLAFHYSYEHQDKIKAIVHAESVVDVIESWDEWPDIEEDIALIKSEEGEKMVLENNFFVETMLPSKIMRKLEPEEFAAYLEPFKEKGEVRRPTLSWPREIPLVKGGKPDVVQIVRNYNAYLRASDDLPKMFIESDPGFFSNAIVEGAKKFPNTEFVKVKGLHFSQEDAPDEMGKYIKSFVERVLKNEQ
# Description: 1 µL of purified luciferase was then dispensed into each well for final concentrations 10 nM FLuc or 1 nM RLuc. The bioluminescence outputs were measured by an EnVision reader (PerkinElmer, Wellesley, MA). Due to the relatively short luminescence duration of the RLuc assay, dispense time constants were set to match closely to the read time of the plate reader. As a result, each individual well was read with approximately the same time delay from reagent dispense to signal acquisition. See Table 1 for the 1536-well assay protocols.
# as §1, §2
# JNK3 = tested on: JNK3; parameters: method as in Angell, R.M., et al. 2007; settings: ref Angell, R.M., et al. 2007; read-out: PKI IC50 (µM), JNK3; cited from earlier work
# LCK = tested on: LCK; parameters: method as in Bamborough, P., et al. 2007; settings: ref Bamborough, P., et al. 2007; read-out: PKI IC50 (µM), LCK; cited from earlier work
# GSK3β = settings: ref Peat, A. J., et al., 2004; read-out: PKI IC50 (µM), GSK3β; cited from earlier work
# [3] = 10 nM FLuc, 10 µM D-luciferin, 10 µM ATP, read-out: FLuc Parameters IC50
# [4] = Figure 2b, representative structures of clusters, read-out: FLuc IC50
# [5] = Figure 2b, representative structures of clusters
# [6] = Figure 3, read-out: IC50 (FLuc)
# [7] = Figure 4b, read-out: FLuc (IC50)
SMILES,"IC50 [1, 3]",FLuc Parameters Hill Coef [1],"IC50 ([1]; Table 3, read-out: FLuc IC50)",Emax [1],RLuc Curve Class [2],"IC50 [1, 6]",further results
O=C1Nc2ccccc2/C1=C1\CCc2cc(O)ccc21 [GR105659X],5.17 µM,1.01,5.17 µM,103%,,,IC50 (TRKA): 0.006 µM
NS(=O)(=O)c1cccc(N/C=C2\C(=O)Nc3ccccc32)c1 [GW275616X],,,,,,,"IC50 [1, 4]: 18 µM"
O=C1Nc2ccccc2/C1=C/Nc1ccc2[nH]c(=O)[nH]c2c1 [GW284408X],4.11 µM,1.93,4.11 µM,37.9%,4,,IC50 (TRKA): 0.007 µM
CC(C)c1ccc2c(c1)NC(=O)C2=NNc1ccc(S(N)(=O)=O)cc1 [GW300653X],,,,,,,"FLuc IC50 [1, 5]: Inactive"
c1ccc(Nc2ncc(-c3ccccc3)o2)cc1 [GW549390X],0.26 µM,1.1,0.26 µM,98.6%,4,,
CS(=O)(=O)CCNCc1coc(-c2ccc3ncnc(Nc4ccc(OCc5ccccc5)cc4)c3c2)c1 [GW566221A],,,,,,,"IC50 [1, 4]: 12 µM"
CCN(CC)S(=O)(=O)c1ccc(OC)c(Nc2ncc(-c3ccccc3)o2)c1 [GW572401X],,,,,,> 20 µM,
N#Cc1c(NC(=O)c2ccccc2F)sc2c1CCCC2 [GW572738X],0.82 µM,1.66,0.82 µM,82.6%,4,,IC50 (JNK3): 0.4 µM
COc1ccc(Nc2ncc(-c3ccccc3)o2)cc1OC [GW575533A],5.8 µM,1.17,5.8 µM,90%,4,,
Cc1ccc(Nc2ccnc(Nc3cccc(C(N)=O)c3)n2)cc1O [GW575808A],1.46 µM,1.54,1.46 µM,106%,4,,IC50 (LCK): 0.19 µM
COc1cc(/C=N/Nc2ncnc3[nH]ncc23)ccc1O [GW578748X],3.66 µM,1.33,3.66 µM,82.3%,4,3.7 µM,IC50 (GSK3β): 3.16 µM
COC(=O)Nc1nc2ccc(Oc3ccc(NC(=O)Nc4cccc(Cl)c4)cc3)cc2[nH]1 [GW589961A],,,,,,> 30 µM,
N#Cc1cccc(Nc2ncc(-c3ccccc3)o2)c1 [GW627834A],1.03 µM,1.21,1.03 µM,84.1%,4,,"IC50 [1, 4]: 1 µM"
COc1cc(Nc2ncc(-c3ccccc3)o2)cc(OC)c1 [GW631581B],6.51 µM,1.29,6.51 µM,88.5%,4,,
Cc1cccc(Nc2ncc(-c3ccccc3)o2)c1 [GW632046X],0.58 µM,1.11,0.58 µM,104%,4,,
COc1cc(/C=N/Nc2ncnc3c2cnn3C(C)C)ccc1O [GW644007X],5.8 µM,1.86,5.8 µM,40.7%,4,,IC50 (GSK3β): 2.51 µM
CCc1cccc(NC(=O)Nc2ccc(Oc3ccc4nc(NC(=O)OC)[nH]c4c3)cc2)c1 [GW673715X],,,,,,> 30 µM,
COC(=O)Nc1nc2cc(Oc3ccc(NC(=O)Nc4cccc(Br)c4)cc3)ccc2[nH]1 [GW694234A],,,,,,> 30 µM,
COC(=O)Nc1nc2cc(Oc3ccc(NC(=O)Nc4ccccc4)cc3)ccc2[nH]1 [GW694590A],,,,,,14.6 µM,"IC50 [1, 4]: 15 µM; IC50 [1, 7]: 14 µM"
COC(=O)Nc1nc2ccc(Oc3ccc(NC(=O)Nc4cccc(C(=O)O)c4)cc3)cc2[nH]1 [GW701427A],0.12 µM,1.69,0.12 µM,102%,,,
NC(=O)c1cccc(Nc2nccc(Nc3cccc(F)c3)n2)c1 [GW759710A],0.73 µM,1.21,0.73 µM,98.6%,4,,IC50 (LCK): 3.3 µM
COc1cccc(-n2ncc3c(N/N=C/c4ccc(C(=O)NCCN(C)C)cc4)ncnc32)c1 [GW784307A],,,,,,16 µM,
COc1cccc(-n2ncc3c(N/N=C/c4ccncc4)ncnc32)c1 [GW784752X],,,,,,6.5 µM,
COc1cccc(-n2cnc3c(N/N=C/c4ccncc4)ncnc32)c1 [GW813360X],,,,,,16 µM,
COc1cccc(-c2c[nH]c3c(N/N=C/c4ccncc4)ncnc23)c1 [GW814408X],,,,,,,"IC50 [1, 4]: 6 µM; IC50 [1, 7]: 5.8 µM"
COc1cccc(-n2ncc3c(N/N=C/c4ccc(F)cc4)ncnc32)c1 [GW817396X],,,,,,33 µM,
N#Cc1c(NC(=O)c2ccc(F)cc2)sc2c1CCCC2 [SB-347804],0.92 µM,1.48,0.92 µM,72.5%,4,,IC50 (JNK3): 3.16 µM
O=C1NC(=O)C(c2ccc(Cl)cc2)=C1Nc1ccc(Cl)c(C(=O)O)c1 [SB-360741],,,,,,,"FLuc IC50 [1, 5]: inactive"
COc1ccc(-c2ccc3c(NC(=O)C4CC4)n[nH]c3n2)cc1 [SB-711237],2.31 µM,0.8,2.31 µM,44.8%,4,,
O=C(Nc1n[nH]c2cc(-c3ccccc3)ccc12)C1CC1 [SB-732941],,,,,,,"IC50 [1, 4]: 18 µM"
